# According to patent US20090149485A1, “PYRIMIDINEDIONES AS TYROSINE KINASE INHIBITORS” (Jubilant Biosys Limited, priority 2006, published 2009):
# Columns and labels:
# GSK3-alpha = target: T1, GSK3-alpha (Homo sapiens, UniProt P49840); test: GSK3-alpha Kinase-Glo Plus luminescent kinase assay; type: biochemical; settings: 10 μM compound, n=3, read-out: % Inhibition at 10 μM α
# T1 construct: purchased Upstate 14-492
# Procedure: (§1) GSK3 assays were performed using Kinase-Glo® Plus Luminescent Kinase Assay Kit (Promega V3772/3/4 P), in assay buffer (50 mM HEPES, 30 mM Magnesium acetate, 1 mM EDTA and 1 mM EGTA, pH 7.5) in white 96-well-Optiplates (Perkin Elmer). In a typical assay reaction mix (40 μl final volume) contained 10 μl of test compound (dissolved in DMSO), 10 μl of GSM peptide substrate (Upstate Cat#12-533) 20M-GSK3-beta; 25 μM-GSK3-alpha were added followed by 10 μl of enzyme 40 ng/well-GSK3-beta (Upstate Cat#14-306); 30 ng/well-GSK3-alpha (Upstate Cat#14-492) and 1 μM ATP. After incubation at room temperature for 30 minutes, 40 μl of Kinase-Glo reagent was added to stop the reaction, followed by another 5 minutes incubation at room temperature. Luminescence was measured using Wallac 1450 MicroBeta® TriLux (PerkinElmer) Liquid Scintillation and Luminescence Counter. The activity is expressed as a difference of the consumed ATP and total ATP.
# GSK3-beta = target: T2, GSK3-beta (Homo sapiens, UniProt P49841); test: GSK3-beta Kinase-Glo Plus luminescent kinase assay; type: biochemical; settings: 10 μM compound; for inhibition at 10 µM: n=4, read-out: % Inhibition at 10 μM β
# T2 construct: purchased Upstate 14-306
# Procedure: To analyze the activity of the compounds, the said compounds were subjected to biochemical assays. The biochemical assays as performed by the undermentioned methods are used to evaluate the potency of the compounds. This potency data is the indication of the bioactivity of the organic compounds which are described as inhibitors of GSK3beta.
# as §1
# T1 sequence (P49840 whole entry): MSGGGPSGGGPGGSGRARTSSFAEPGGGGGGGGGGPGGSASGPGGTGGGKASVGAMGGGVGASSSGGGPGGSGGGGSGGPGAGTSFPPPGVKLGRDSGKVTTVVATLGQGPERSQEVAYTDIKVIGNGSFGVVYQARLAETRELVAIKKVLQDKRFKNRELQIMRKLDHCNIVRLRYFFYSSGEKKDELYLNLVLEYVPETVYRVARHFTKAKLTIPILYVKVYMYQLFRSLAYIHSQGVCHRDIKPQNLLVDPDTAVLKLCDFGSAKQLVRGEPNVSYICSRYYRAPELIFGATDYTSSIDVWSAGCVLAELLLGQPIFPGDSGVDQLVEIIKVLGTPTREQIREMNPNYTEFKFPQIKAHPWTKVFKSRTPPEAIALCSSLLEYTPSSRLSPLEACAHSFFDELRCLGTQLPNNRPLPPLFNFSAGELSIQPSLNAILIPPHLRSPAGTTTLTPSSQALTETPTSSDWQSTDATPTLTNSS
# T2 sequence (P49841 whole entry): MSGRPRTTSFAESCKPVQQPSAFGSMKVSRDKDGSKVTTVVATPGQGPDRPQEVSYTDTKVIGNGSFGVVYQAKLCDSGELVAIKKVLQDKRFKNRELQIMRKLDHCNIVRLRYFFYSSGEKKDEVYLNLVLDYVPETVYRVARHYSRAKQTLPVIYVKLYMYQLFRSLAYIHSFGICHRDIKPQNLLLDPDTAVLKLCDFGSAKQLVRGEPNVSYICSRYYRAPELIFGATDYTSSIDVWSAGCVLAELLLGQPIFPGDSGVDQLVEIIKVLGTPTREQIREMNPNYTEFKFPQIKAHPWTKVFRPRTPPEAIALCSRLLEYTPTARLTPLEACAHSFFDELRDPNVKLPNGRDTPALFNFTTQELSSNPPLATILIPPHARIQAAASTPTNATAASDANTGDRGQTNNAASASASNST
inhibition at 10 µM (GSK3-alpha),inhibition at 10 µM (GSK3-beta),"% Inhibition at 10 μM β (GSK3-beta; n=4, 10 µM)",SMILES
9%,13%,–,"CCOC(=O)Cn1cc(-c2ccco2)c(=O)[nH]c1=O [Compound 1, (2,4-Dioxo-5-furan-2-yl-3,4-dihydro-2H-pyrimidin-1-yl)-acetic Acid Ethyl Ester]"
68%,77%,–,"CCOC(=O)Cn1cc(-c2cccs2)c(=O)[nH]c1=O [Compound 2, (2,4-Dioxo-5-thiophen-2-yl-3,4-dihydro-2H-pyrimidin-1-yl)-acetic acid Ethyl Ester]"
11%,66%,68%,"O=c1[nH]c(=O)n(Cc2ccc(F)cc2)cc1-c1cccs1 [Compound 3, 1-(4-Fluoro-benzyl)-5-thiophen-2-yl-1H-pyrimidine-2,4-dione]"
72%,56%,–,"O=c1[nH]c(=O)n(Cc2ccc(F)cc2)cc1-c1ccco1 [Compound 4, 1-(4-Fluoro-benzyl)-5-furan-2-yl-1H-pyrimidine-2,4-dione]"
17%,46%,–,"N#Cc1ccc(Cn2cc(-c3ccco3)c(=O)[nH]c2=O)cc1 [Compound 5, 4-(2,4-Dioxo-5-furan-2-yl-3,4-dihydro-2H-pyrimidin-1-ylmethyl)-benzonitrile]"
10%,45%,–,"O=c1[nH]c(=O)n(Cc2ccccc2)cc1-c1cccs1 [Compound 6, 1-Benzyl-5-thiophen-2-yl-1H-pyrimidine-2,4-dione]"
16%,45%,–,"N#Cc1cccc(Cn2cc(-c3cccs3)c(=O)[nH]c2=O)c1 [Compound 7, 3-(2,4-dioxo-5-thiophen-2-yl-3,4-dihydro-2H-pyrimidin-1-ylmethyl)-benzonitrile]"
54%,78%,–,"N#Cc1cccc(Cn2c(=O)[nH]cc(-c3cccs3)c2=O)c1 [Compound 8, 3-(2,6-Dioxo-5-thiophen-2-yl-3,6-dihydro-2H-pyrimidin-1-ylmethyl)-benzonitrile]"
22%,64%,–,"N#Cc1cccc(Cn2c(=O)[nH]cc(-c3ccco3)c2=O)c1 [Compound 9, 3-(5-furan-2-yl-2,6-dioxo-3,6-dihydro-2H-pyrimidin-1-ylmethyl)-benzonitrile]"
6%,13%,–,"O=c1[nH]cc(-c2cccs2)c(=O)n1Cc1ccc(F)cc1 [Compound 10, 3-(4-fluoro-benzyl)-5-thiophen-2-yl-1H-pyrimidine-2,4-dione]"
16%,46%,–,"O=c1[nH]cc(-c2ccco2)c(=O)n1Cc1ccc(F)cc1 [Compound 11, 3-(4-fluoro-benzyl)-5-furan-2-yl-1H-pyrimidine-2,4-dione]"
55%,75%,–,"O=c1[nH]cc(-c2ccco2)c(=O)n1Cc1ccc([N+](=O)[O-])cc1 [Compound 12, 3-(4-nitro-benzyl)-5-furan-2-yl-1H-pyrimidine-2,4-dione]"
13%,25%,–,"CCOC(=O)Cn1c(=O)[nH]cc(-c2ccco2)c1=O [Compound 13, (2,6-dioxo-5-furan-2-yl-3,6-dihydro-2H-pyrimidin-1-yl)-acetic Acid Ethyl Ester]"
42%,63%,–,"O=c1[nH]cc(-c2ccco2)c(=O)n1Cc1ccccc1 [Compound 14, 3-benzyl-5-furan-2-yl-1H-pyrimidine-2,4-dione]"
14%,21%,–,"N#Cc1ccc(Cn2c(=O)[nH]cc(-c3ccco3)c2=O)cc1 [Compound 15, 4-(2,6-dioxo-5-furan-2-yl-3,6-dihydro-2H-pyrimidin-1-ylmethyl)-benzonitrile]"
8%,58%,–,"O=c1[nH]cc(-c2cccs2)c(=O)n1Cc1ccc([N+](=O)[O-])cc1 [Compound 17, 3-(4-nitro-benzyl)-5-thiophen-2-yl-1H-pyrimidine-2,4-dione]"
10%,31%,–,"N#Cc1cccc(Cn2cc(-c3ccco3)c(=O)[nH]c2=O)c1 [Compound 18, 3-(5-furan-2-yl-2,4-dioxo-3,4-dihydro-2H-pyrimidin-1-ylmethyl)-benzonitrile]"
15%,23%,–,"N#Cc1ccc(Cn2cc(-c3cccs3)c(=O)[nH]c2=O)cc1 [Compound 19, 4-(2,4-dioxo-5-thiophen-2-yl-3,4-dihydro-2H-pyrimidin-1-ylmethyl)-benzonitrile]"
11%,53%,–,"O=c1[nH]cc(-c2ccco2)c(=O)n1Cc1cc(F)cc(F)c1 [Compound 20, 3-(3,5-difluoro-benzyl)-5-furan-2-yl-1H-pyrimidine-2,4-dione]"
